The results in this text go back to ChEMBL document CHEMBL5465560, “Selectivity Literature for EUbOPEN Chemogenomic Library” (2024).

Assay [1] concerns the target Mitogen-activated protein kinase kinase kinase kinase 4 (Homo sapiens, UniProt O95819). Put plainly: Selectivity interaction (Kinase panel (Z-LYTE Assay)) EUB0001632a MAP4K4. To be noted: at 10 µM.
Assay [2] has as its target Serine/threonine-protein kinase PLK2 (Homo sapiens, UniProt Q9NYY3). Put plainly: Selectivity interaction (SelectScreen profiling (Invitrogen)) EUB0000607a PLK2. To be noted: at 2 µM.
Assay [3] addresses Tyrosine-protein kinase HCK (Homo sapiens) (UniProt P08631). Nature of the assay: Selectivity interaction (KinomeScan (DiscoverX)) EUB0000229b HCK. To be noted: at 10 µM.
Assay [4] concerns the target Tyrosine-protein kinase JAK1 (Homo sapiens, UniProt P23458). Put plainly: Selectivity interaction (KinomeScan (DiscoverX)) EUB0000229b JAK1. Conditions: at 10 µM.
For assay [5], the target named is Ephrin type-A receptor 7 (Homo sapiens) (UniProt Q15375). Put plainly: Selectivity interaction (KinomeScan (DiscoverX)) EUB0000655a EPHA7. To be noted: at 10 µM.
Assay [6] has as its target T1, Serine/threonine-protein kinase STK11 (Homo sapiens) (UniProt Q15831).
T1 sequence (whole entry): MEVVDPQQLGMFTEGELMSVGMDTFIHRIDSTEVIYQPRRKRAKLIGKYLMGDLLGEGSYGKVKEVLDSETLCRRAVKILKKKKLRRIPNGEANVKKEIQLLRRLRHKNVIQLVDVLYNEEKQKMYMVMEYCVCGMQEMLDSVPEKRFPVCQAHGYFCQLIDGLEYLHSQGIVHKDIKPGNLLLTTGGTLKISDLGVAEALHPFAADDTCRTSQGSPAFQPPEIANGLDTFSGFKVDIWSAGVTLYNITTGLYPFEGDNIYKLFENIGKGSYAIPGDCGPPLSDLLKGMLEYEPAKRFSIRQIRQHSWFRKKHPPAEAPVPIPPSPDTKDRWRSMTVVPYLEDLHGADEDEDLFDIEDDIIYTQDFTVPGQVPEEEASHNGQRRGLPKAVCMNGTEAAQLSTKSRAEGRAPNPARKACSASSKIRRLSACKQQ
Nature of the assay: Selectivity interaction (ActivX KiNativ screen (ex vivo kinase selectivity in human PBMCs)) EUB0001619a STK11. In kind it is cell-based. Conditions: PBMC, at 1 µM.

Assay [7] concerns the target T2, Serine/threonine-protein kinase LATS1 (Homo sapiens) (UniProt O95835).
T2 sequence (whole entry): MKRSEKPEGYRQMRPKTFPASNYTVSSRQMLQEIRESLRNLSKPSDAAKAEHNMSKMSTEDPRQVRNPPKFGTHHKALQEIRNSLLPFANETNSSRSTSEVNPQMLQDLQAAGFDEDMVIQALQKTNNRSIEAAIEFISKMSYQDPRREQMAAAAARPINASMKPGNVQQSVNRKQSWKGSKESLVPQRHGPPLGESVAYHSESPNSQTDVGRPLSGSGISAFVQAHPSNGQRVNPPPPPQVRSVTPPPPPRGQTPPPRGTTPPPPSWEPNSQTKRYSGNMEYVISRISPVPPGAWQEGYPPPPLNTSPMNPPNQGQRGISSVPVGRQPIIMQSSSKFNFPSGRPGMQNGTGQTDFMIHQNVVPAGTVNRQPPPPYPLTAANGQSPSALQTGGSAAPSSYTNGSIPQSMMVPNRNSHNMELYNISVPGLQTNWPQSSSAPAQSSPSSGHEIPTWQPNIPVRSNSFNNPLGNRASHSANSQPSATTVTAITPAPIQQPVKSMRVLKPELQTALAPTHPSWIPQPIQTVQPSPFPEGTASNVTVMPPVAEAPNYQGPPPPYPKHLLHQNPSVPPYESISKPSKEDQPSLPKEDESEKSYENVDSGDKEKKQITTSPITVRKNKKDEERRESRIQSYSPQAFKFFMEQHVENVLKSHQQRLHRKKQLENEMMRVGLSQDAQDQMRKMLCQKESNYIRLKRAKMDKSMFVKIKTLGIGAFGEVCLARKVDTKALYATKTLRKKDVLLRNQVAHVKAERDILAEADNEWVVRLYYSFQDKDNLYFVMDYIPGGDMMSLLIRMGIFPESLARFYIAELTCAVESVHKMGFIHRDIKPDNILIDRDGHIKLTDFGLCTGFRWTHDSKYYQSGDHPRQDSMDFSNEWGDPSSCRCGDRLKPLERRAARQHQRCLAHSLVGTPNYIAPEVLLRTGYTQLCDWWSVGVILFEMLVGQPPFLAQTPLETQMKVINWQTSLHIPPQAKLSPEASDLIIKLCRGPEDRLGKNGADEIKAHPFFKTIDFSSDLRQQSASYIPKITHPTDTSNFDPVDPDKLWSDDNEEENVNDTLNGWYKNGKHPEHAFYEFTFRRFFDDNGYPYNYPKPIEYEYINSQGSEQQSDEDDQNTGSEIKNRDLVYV
Nature of the assay: Selectivity interaction (ActivX KiNativ screen (kinase selectivity in THP-1 cell lysates)) EUB0000639a LATS1. In kind it is subcellular. Conditions: lysate, at 0.04 µM.

Assay [8] has as its target [Pyruvate dehydrogenase (acetyl-transferring)] kinase isozyme 1, mitochondrial (Homo sapiens, UniProt Q15118).
Assay [9] deals with Dual specificity protein kinase CLK1 (Homo sapiens, UniProt P49759). Nature of the assay: Selectivity interaction (Enzymatic assay) EUB0001550a CLK1.
Sequence of Dual specificity protein kinase CLK1 (P49759 whole entry): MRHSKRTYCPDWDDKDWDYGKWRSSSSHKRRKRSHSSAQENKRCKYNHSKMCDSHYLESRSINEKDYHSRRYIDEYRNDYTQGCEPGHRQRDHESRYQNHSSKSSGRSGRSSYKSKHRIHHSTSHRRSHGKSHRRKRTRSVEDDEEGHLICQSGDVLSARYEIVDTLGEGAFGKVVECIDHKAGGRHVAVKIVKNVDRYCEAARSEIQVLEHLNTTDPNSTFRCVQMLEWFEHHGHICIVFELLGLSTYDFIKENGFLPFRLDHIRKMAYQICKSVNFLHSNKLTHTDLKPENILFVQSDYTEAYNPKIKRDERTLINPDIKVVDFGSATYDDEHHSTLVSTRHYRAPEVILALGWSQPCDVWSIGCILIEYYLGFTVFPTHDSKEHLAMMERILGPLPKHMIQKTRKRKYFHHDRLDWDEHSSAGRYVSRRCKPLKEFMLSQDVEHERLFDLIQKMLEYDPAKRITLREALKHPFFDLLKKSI
Assay [10] deals with AP2-associated protein kinase 1 (Homo sapiens, UniProt Q2M2I8). Nature of the assay: Selectivity interaction (KinomeScan (DiscoverX)) EUB0001868a AAK1. Conditions: at 1 µM.
The target of assay [11] is Mitogen-activated protein kinase kinase kinase 10 (Homo sapiens) (UniProt Q02779). Put plainly: Selectivity interaction (KinomeScan (DiscoverX)) EUB0000618a MAP3K10. Conditions: at 10 µM.
Sequence of Mitogen-activated protein kinase kinase kinase 10 (Homo sapiens) (Q02779 whole entry, looked up): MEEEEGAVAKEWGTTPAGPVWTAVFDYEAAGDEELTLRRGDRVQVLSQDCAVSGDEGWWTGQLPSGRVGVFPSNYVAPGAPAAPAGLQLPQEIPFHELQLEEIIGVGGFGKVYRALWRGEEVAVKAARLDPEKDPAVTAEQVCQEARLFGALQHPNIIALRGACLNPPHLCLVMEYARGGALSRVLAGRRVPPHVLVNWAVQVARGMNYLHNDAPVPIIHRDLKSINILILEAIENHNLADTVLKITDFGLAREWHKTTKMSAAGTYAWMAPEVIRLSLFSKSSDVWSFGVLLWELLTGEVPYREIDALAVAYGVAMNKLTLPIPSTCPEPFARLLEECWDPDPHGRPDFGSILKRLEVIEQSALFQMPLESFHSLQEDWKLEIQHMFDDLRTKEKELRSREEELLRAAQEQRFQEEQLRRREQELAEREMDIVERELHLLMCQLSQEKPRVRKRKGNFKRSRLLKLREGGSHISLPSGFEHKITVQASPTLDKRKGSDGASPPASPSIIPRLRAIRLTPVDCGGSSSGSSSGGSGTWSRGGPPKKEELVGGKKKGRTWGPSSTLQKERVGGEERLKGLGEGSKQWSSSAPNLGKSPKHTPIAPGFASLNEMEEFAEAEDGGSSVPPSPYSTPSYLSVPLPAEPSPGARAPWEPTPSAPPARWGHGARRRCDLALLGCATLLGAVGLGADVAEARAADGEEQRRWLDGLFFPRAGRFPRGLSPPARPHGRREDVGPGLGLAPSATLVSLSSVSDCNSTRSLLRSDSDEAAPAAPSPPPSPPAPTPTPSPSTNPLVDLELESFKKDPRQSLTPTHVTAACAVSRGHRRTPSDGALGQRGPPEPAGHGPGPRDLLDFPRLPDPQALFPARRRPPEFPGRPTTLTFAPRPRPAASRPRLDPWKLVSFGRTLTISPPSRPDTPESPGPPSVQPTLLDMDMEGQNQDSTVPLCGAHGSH
In assay [12] the target is Transient receptor potential cation channel subfamily M member 6 (Homo sapiens) (UniProt Q9BX84). Put plainly: Selectivity interaction (KinomeScan (DiscoverX)) EUB0000618a TRPM6. To be noted: at 10 µM.
Sequence of Transient receptor potential cation channel subfamily M member 6 (Homo sapiens) (Q9BX84 whole entry): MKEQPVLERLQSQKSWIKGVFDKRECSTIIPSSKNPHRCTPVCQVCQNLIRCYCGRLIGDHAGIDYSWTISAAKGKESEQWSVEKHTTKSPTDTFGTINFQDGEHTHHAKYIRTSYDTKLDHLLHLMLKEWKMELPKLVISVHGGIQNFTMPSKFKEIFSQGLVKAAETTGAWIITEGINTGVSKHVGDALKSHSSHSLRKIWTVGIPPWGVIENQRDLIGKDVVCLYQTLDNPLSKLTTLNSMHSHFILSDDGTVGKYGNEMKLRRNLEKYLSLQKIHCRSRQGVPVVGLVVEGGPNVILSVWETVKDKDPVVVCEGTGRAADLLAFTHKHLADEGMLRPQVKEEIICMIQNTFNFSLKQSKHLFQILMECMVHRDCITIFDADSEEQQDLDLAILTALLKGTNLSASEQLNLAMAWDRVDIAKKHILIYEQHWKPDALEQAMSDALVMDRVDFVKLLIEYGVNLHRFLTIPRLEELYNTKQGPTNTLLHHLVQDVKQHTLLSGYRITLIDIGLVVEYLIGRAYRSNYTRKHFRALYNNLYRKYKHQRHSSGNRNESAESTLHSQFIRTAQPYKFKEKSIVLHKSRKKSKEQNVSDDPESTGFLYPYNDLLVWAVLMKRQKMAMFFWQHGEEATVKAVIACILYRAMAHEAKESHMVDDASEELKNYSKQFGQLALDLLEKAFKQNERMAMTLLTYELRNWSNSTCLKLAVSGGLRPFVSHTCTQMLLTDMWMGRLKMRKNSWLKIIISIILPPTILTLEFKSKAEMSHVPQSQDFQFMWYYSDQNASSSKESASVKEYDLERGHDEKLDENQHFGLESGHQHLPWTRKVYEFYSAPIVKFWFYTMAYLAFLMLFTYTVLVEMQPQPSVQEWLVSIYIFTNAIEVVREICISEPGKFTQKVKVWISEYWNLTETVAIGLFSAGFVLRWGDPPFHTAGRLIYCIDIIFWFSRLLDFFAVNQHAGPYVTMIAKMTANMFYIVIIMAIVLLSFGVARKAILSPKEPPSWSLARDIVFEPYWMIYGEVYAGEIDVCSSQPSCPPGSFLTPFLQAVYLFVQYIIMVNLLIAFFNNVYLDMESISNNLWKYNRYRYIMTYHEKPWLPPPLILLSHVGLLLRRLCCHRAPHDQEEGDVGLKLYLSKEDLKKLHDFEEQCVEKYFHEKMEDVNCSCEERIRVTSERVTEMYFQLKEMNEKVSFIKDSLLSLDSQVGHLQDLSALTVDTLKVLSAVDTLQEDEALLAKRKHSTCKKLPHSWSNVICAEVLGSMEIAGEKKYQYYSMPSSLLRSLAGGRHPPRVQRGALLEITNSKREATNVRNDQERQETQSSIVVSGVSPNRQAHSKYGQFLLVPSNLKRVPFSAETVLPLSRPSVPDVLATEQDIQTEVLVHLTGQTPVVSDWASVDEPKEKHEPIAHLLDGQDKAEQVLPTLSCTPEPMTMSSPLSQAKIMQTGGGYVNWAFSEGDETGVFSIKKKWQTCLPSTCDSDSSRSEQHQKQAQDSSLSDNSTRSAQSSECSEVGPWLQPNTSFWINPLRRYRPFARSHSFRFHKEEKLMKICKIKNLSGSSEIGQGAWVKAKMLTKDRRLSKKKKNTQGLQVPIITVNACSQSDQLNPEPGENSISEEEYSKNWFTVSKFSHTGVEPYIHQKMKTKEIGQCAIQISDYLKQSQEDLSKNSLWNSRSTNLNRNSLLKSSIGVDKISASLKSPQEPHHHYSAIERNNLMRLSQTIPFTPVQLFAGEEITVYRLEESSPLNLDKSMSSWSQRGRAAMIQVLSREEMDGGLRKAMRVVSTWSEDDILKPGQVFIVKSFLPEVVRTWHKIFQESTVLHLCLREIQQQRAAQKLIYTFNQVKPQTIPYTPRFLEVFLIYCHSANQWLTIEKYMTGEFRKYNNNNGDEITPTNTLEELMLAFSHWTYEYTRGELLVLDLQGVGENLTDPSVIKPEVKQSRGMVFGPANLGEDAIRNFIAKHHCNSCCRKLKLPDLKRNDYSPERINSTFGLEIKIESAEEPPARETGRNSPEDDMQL
For assay [13], the target named is T3, Dual specificity mitogen-activated protein kinase kinase 4 (Homo sapiens) (UniProt P45985).
T3 sequence (whole entry): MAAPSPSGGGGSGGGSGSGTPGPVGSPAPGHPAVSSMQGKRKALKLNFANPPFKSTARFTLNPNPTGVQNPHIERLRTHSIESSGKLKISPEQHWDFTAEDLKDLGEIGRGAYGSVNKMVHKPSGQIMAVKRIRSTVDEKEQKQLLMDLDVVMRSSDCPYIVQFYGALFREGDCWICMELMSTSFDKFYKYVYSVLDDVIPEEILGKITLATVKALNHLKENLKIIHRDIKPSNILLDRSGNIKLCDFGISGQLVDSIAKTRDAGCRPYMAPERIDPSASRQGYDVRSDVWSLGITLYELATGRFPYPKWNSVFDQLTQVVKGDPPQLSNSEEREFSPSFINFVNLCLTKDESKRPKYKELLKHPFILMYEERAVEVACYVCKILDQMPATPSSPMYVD
Nature of the assay: Selectivity interaction (KinomeScan (DiscoverX)) EUB0000595a MAP2K4. To be noted: at 10 µM.

Sequence of [Pyruvate dehydrogenase (acetyl-transferring)] kinase isozyme 1, mitochondrial (Q15118 whole entry): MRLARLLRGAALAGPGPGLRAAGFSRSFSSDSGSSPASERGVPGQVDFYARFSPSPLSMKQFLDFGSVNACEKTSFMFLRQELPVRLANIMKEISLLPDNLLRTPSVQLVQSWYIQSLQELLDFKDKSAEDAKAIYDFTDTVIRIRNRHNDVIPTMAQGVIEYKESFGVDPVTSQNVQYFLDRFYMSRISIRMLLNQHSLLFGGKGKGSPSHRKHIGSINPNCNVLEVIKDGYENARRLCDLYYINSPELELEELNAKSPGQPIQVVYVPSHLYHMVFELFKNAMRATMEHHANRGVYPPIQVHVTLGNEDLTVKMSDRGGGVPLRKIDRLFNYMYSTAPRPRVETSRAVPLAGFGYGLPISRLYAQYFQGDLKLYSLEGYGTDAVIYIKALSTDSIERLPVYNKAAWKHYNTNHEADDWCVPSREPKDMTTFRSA
Sequence of Tyrosine-protein kinase JAK1 (P23458 whole entry): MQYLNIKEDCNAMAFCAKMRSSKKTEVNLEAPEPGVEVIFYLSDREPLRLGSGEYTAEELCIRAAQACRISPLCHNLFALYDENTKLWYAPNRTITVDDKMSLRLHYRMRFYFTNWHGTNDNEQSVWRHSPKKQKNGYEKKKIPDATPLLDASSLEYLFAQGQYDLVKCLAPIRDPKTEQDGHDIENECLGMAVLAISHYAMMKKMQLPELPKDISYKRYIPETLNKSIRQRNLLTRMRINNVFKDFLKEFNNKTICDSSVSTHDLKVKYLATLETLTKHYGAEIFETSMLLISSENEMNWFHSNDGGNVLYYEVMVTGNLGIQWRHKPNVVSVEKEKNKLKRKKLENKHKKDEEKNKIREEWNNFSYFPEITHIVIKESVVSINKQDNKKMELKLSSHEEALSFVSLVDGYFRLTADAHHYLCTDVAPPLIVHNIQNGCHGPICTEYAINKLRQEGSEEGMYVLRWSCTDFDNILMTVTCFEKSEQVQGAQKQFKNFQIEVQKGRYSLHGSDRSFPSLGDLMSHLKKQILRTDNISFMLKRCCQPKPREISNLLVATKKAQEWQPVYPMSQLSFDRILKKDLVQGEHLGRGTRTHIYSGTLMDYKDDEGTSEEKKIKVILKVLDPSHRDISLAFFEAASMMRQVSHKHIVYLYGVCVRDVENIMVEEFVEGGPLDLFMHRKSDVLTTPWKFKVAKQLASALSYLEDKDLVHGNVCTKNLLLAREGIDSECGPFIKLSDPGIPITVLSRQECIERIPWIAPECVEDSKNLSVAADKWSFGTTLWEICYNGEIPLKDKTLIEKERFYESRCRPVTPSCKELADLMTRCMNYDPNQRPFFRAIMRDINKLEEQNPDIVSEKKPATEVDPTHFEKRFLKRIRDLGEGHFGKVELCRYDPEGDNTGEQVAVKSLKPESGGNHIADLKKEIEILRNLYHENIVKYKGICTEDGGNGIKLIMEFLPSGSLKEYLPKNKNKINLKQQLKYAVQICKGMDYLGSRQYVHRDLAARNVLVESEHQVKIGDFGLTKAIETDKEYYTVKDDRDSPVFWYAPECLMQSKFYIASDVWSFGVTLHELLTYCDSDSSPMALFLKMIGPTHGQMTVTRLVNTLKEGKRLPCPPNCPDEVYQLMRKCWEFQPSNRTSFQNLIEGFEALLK

`Cn1cc(-n2cnc3c(NCc4nc5cc(Cl)c(Cl)cc5[nH]4)nc(N4CCOCC4)nc32)cn1` showed a % of control in assay [1] of 4.98%. For the compound `CNC(=O)Nc1ccc(-c2nc(N3CC4CCC(C3)O4)c3cnn(C4CCC5(CC4)OCCO5)c3n2)cc1`, the % of inhibition in [2] stood at 1%. Turning to `COc1cc(N(C)c2ccnc3ccc(C(F)(F)F)cc23)cc(OC)c1OC`, the % binding amounted to 100% in assay [3] and 82% in [4].

In turn, `CN(C)CCOc1ccc(-c2nc(-c3ccncc3)c(-c3ccc4c(c3)CC/C4=N\O)[nH]2)cc1` came in with a % of control in assay [5] of 100%. Turning to `N#Cc1cccc(-c2c[nH]c3ncnc(N4CCOCC4)c23)c1`, in [6], the % of inhibition stood at 17%. On to `CC[C@@H]1[C@H](F)C(=O)N[C@@H]1COc1nccc2cc(C(N)=O)c(OC)cc12` [ZIMLOVISERTIB], for which the % of inhibition in assay [7] is -18.5%. With `CCc1cccc(CC)c1NC(=O)c1nn(C)c2c1CCc1cnc(Nc3ccc(C(=O)NC4CCN(C)CC4)cc3OC(F)(F)F)nc1-2`, in assay [8], the IC50 was above 10000 nM. `CN(C)CC#Cc1ccc2[nH]c3c(c2c1)-c1nc(N)ncc1CCC3` had a half-inhibitory concentration (IC50) in assay [9] of 420 nM. As for `Cc1cc(-c2ccnc(Nc3cnn(C)c3)n2)ccc1CNC(=O)N1CC(OC(C)C)C1`, the % of control in assay [10] was 22%. Regarding `O[C@H]1CC[C@H](Nc2ncc3nc(Nc4c(F)cc(F)cc4F)n([C@H]4CCOC4)c3n2)CC1`, the % of control in assay [11] and in assay [12] was 100% throughout. As to `COCC(=O)NC/C=C/c1ccc2ncnc(Nc3ccc(Oc4ccc(C)nc4)c(C)c3)c2c1` [CP-724714], the % of control in [13] came to 95%.

Broadly, the IC50 is the concentration that inhibits the measured activity by half. The low end stands for greater potency, the high end for weaker potency.
